The source of these data is patent publication US8865728B2, “Combinations comprising methotrexate and DHODH inhibitors” (Almirall, S.A., priority 2008, dated 2014).

“Also recorded” adds a separate entry of the source.

Series [1] is described as follows: Acute hepatotoxicity assay in Swiss mice (plasma liver markers). To be noted: for ALT plasma level / AST plasma level / BIL (total bilirubin) plasma level: Swiss mice, single 100 mg/kg intraperitoneal, 24 h after administration. It counts as in vivo. As to the method: Acute hepatotoxicity assays were performed in Swiss mice. Animals received a single administration of either vehicle, or 100 mg/kg of teriflunomide or a compound of the present invention (compounds from the list indicated previously) by intraperitoneal route. Twenty-four hours later, animals were sacrificed and the levels of liver markers AST(aspartate aminotransferase), ALT(alanine aminotransferase) and BIL(total bilirubin) in plasma were determined.

A further series addresses human DHODH (Homo sapiens, UniProt Q02127). Description: Inhibition of human DHODH activity assay (DCIP chromogen reduction). It counts as biochemical. To be noted: chromogen reduction assay with DCIP, human enzyme extract; read-out: hDHODH IC50.
Series [2] concerns rat adjuvant-induced arthritis model (AIA). Description: Efficacy in rat adjuvant-induced arthritis model (AIA), curative protocol. The class given is in vivo, Wistar rats. The conditions noted are these: arthritic rats, oral once a day, MTX 0.05 mg/Kg/day, AUC of right paw volumes days 10-21 vs vehicle; for % AUC inhibition right paw: Teriflunomide 3 mg/Kg/day, one experiment with 6 animals. Here is the method:
The effect of DHODH inhibitor compounds were tested in combination with methotrexate (0.05 mg/Kg/day) in the rat adjuvant-induced arthritis model (AIA) in animals with established disease (curative protocol). Briefly, Complete Freund Adjuvant (CFA) was injected into the left hind footpad of Wistar rats, and 10 days later the swelling of the two rear paws was measured with a plethysmometer. […] Compounds were administered orally once a day for 10 days and paw volumes were determined every two days up to day 21.

human DHODH, sequence (Q02127 whole entry): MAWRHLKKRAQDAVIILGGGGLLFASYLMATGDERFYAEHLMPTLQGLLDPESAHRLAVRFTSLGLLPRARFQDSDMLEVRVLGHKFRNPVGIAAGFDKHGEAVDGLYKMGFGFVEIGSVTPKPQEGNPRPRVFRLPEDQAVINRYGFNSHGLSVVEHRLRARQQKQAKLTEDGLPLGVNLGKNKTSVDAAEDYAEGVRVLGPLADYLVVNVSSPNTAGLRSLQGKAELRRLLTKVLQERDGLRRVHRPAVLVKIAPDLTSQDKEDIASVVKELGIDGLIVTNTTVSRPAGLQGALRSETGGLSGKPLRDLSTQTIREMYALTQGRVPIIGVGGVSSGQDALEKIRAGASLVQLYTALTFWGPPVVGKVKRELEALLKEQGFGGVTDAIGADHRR
Experimental for human DHODH: DHODH activity and its inhibition were studied using a chromogen reduction assay with DCIP (2,6-dichlorophenol-indophenol).
Enzyme extracts (8 μl, ˜1.5 μg of human protein) were incubated in 96-well plates. The assay mixture (200 μl) contained 200 μM CoQD, 100 μM L-DHO, 120 μM DCIP in the assay buffer (100 mM HEPES pH 8.0, 150 mM NaCl, 10% Glicerol, 0.05% Triton X-100) and 2 μl of test compound.
The reaction was initiated by adding the enzyme and then incubated for 10 min at room temperature before measuring DCIP reduction by counting a decrease in absorbance at 600 nm using standard instrumentation (Spectramax).
All reactions were carried out in duplicate and graphs, determining IC50 values for each compound, were plotted using the ABase software.

As for `COc1cccc(-c2ccc(Nc3ncccc3C(=O)O)c(F)c2)c1` [Compound 1, 2-(3-Fluoro-3′-methoxybiphenyl-4-ylamino)nicotinic acid], in series [1], the ALT plasma level was 99 IU/l, the AST plasma level turned out to be 84 IU/l and the “BIL (total bilirubin) plasma level” value amounted to 0.03 mg/dL.
Consider `CCOc1cccc(-c2ccc(Nc3ncccc3C(=O)O)c(F)c2)c1` [Compound 2, 2-(3′-Ethoxy-3-fluorobiphenyl-4-ylamino)nicotinic acid], for which, in series [1], the ALT plasma level stood at 35 IU/l, the AST plasma level was 57 IU/l and the “BIL (total bilirubin) plasma level” value turned out to be 0 mg/dL.
For `O=C(O)c1cccnc1Nc1ccc(-c2cccc(OC(F)(F)F)c2)cc1F` [Compound 3, 2-(3-Fluoro-3′-(trifluoromethoxy)biphenyl-4-ylamino)nicotinic acid], in series [1], the ALT plasma level amounted to 52 IU/l, the AST plasma level amounted to 83 IU/l and the “BIL (total bilirubin) plasma level” value was 0.01 mg/dL.
For `CCOc1cccc(-c2ccc(Nc3ncccc3C(=O)O)c(OC(F)(F)F)c2)c1` [Compound 4, 2-(3′-Ethoxy-3-(trifluoromethoxy)biphenyl-4-ylamino)nicotinic acid] the same measures were 70 IU/l, 108 IU/l and 0.05 mg/dL.
Consider `CCOc1cccc(-c2cc(F)c(Nc3ncccc3C(=O)O)c(F)c2)c1` [Compound 19, 2-(3′-Ethoxy-3,5-difluorobiphenyl-4-ylamino)nicotinic acid], for which, in series [1], the ALT plasma level is given as 60 IU/l, the AST plasma level was found to be 92 IU/l and the “BIL (total bilirubin) plasma level” value came out at 0.05 mg/dL.
On to `COc1cccc(-c2cc(F)c(Nc3ncccc3C(=O)O)c(F)c2)c1` [Compound 20, 2-(3,5-Difluoro-3′-methoxybiphenyl-4-ylamino)nicotinic acid], for which, in series [1], the ALT plasma level is reported as 73 IU/l, the AST plasma level worked out at 95 IU/l and the “BIL (total bilirubin) plasma level” value amounted to 0 mg/dL.
With `COc1cccc(-c2ccc(Nc3cnccc3C(=O)[O-])c(OC(F)(F)F)c2)c1.[Li+]` [Compound 23, Lithium 3-(3′-methoxy-3-(trifluoromethoxy)biphenyl-4-ylamino)isonicotinate], in series [1], the ALT plasma level was determined as 35 IU/l, the AST plasma level turned out to be 72 IU/l and the “BIL (total bilirubin) plasma level” value worked out at 0 mg/dL.
As for `COc1cccc(-c2cc(F)c(Nc3ncc(C)cc3C(=O)O)c(F)c2)c1` [Compound 35, 2-(3,5-Difluoro-3′-methoxybiphenyl-4-ylamino)-5-methylnicotinic acid], the IC50 on human DHODH is 0.012 µM.
For the molecule `O=C(O)c1cccnc1Nc1c(F)cc(-c2cccc(OC3CC3)c2)cc1F` [Compound 47, 2-(3′-cyclopropoxy-3,5-difluorobiphenyl-4-ylamino)nicotinic acid], in series [1], the ALT plasma level was determined as 66 IU/l, the AST plasma level was 91 IU/l and the “BIL (total bilirubin) plasma level” value came to 0.14 mg/dL.
Turning to `Cc1c(-c2ccccc2)cc(F)c(Nc2ncccc2C(=O)O)c1F` [Compound 48, 2-(3,5-difluoro-2-methylbiphenyl-4-ylamino)nicotinic acid], in series [1], the ALT plasma level is recorded as 44 IU/l, the AST plasma level was determined as 95 IU/l and the “BIL (total bilirubin) plasma level” value amounted to 0.08 mg/dL.
In the case of `Cc1c(-c2ccccc2Cl)cc(F)c(Nc2ncccc2C(=O)O)c1F` [Compound 57, 2-(2′-chloro-3,5-difluoro-2-methylbiphenyl-4-ylamino)nicotinic acid], in series [1], the ALT plasma level was found to be 60 IU/l, the AST plasma level is on record as 109 IU/l and the “BIL (total bilirubin) plasma level” value amounted to 0.06 mg/dL.
Take `CN(Cc1cnc2nc(N)nc(N)c2n1)c1ccc(C(=O)N[C@@H](CCC(=O)O)C(=O)O)cc1` [MTX, Methotrexate]: the “% AUC inhibition right paw” value in series [2] was 24%. The “% inhibition of the inflammation (AUC) Right paw” value in series [2] (compound A 3 mg/Kg/day, mean of two independent experiments) is given as 37%.
`C/C(O)=C(\C#N)C(=O)Nc1ccc(C(F)(F)F)cc1` [Teriflunomide, reference compound]: in series [1], the ALT plasma level is 423 IU/l, the AST plasma level is recorded as 542 IU/l and the “BIL (total bilirubin) plasma level” value is 0.5 mg/dL. Moreover, the “change in plasma liver markers (ALT, AST, BIL) compared to vehicle-treated mice” value in series [1] (mice, intraperitoneal route, 100 mg/kg) was “dramatic increase in the three liver markers; also recorded: drastic increase in the levels of transaminases and bilirrubin in plasma”. Further, in series [2], the “% AUC inhibition right paw” value came out at 56%.

For orientation: IC50 means the concentration that inhibits the measured activity by half.
